For assay [1], the system named is neuronal [Ca^2+]i in cultured hippocampal neurons. Put plainly: measurement of [Ca^2+]i, fura-2 imaging. As to conditions: for reduction in peak [Ca^2+]i response to glutamate: 1 h. It counts as cell-based, rat. The text has this: Dissociated embryonic rat hippocampal cell cultures were established and maintained. All procedures conformed with the NIH Guide for the Care and Use of Laboratory Animals and were approved by the University of Kentucky Animal Care and Use Committee. Cultures were maintained on a polyethyleneimine-coated substrate in plastic 35-mm dishes or 96 wall plates (for cell survival studies) or glass-bottom 35-mm dishes (for [Ca^2+ ]i imaging studies). The cell density was ^~ 70-100 cells/mm^2. Cells were maintained in Eagle's minimum essential medium supplemented 10% with fetal bovine serum and containing 20 mM sodium pyruvate. […] Aβ25-35 (Bachem, lot ZJ744) and Aβ1-40 (Bachem, lot ZK600) were stored in the lyophilized form, and stocks were prepared immediately before use by dissolving the peptide at a concentration of 1 mM in sterile distilled water. […] Glutamate and colchicine (Sigma) were prepared as 200-500x stocks in saline. Cytochalasins D and E (Sigma) and calcium ionophore 4-bromo-A23187 (Calbiochem) were prepared as 500x stocks in dimethyl sulfoxide. Vitamin E (α-tocopherol; Sigma) was prepared as a 500x stock in ethanol. Nordihydroguaiaretic acid and FeSo4 were prepared as 500x stocks in sterile water.
Fluorescence ratio imaging of the Ca^2+ indicator dye fura-2 was used to quantify [Ca^2+ ]i in neuronal somata. Cells were incubated for 30-40 min in the presence of 2 μM acetoxymethyl ester form of the [Ca^2+ ]i indicator dye fura-2 and were then washed twice (2 ml/wash) with fresh medium and allowed to incubate at least 40 min before imaging. Immediately before imaging, the normal culture medium was replaced with Hanks' balanced saline solution (GIBCO) containing 10 mM HEPES buffer and 10 mM of glucose. Cells were imaged using a Zeiss Attofluor system with a oil objective or Quantex system with a 40x oil objective. The ratio of the fluorescence emission using two different excitation wavelengths (334 and 380 nm) was used to determine [Ca^2+ ]i. The system was calibrated using solutions containing either no Ca^2+ or a saturating level of Ca^2+ (1 mM) according to the following formula: [Ca^2+ ]i =KD [(R-Rmin) / (Rmax -R)] (F0 /FS). Values represent the average [Ca^2+ ]i in the neuronal cell body. Experimental treatments were added to the bathing medium by dilution from 100-500x stocks.
(A) Cultures were pretreated for 1 hr with 100 nM cytochalasin D and then [Ca^2+ ]i in neurons was monitored prior to and following exposure to 50 μM glutamate. The records represent the mean [Ca^2+ ]i in 8-12 neurons. Similar results were obtained in 4 separate experiments.
(B) Aβ-induced potentiation of [Ca^2+ ]i response to glutamate is abrogated by cytochalasin D. Cultures were left untreated (Control) or were exposed to 20 μM Aβ25-35 for 6 hr or cytochalasin D plus Aβ25-35 for 6 hr. The [Ca^2+ ]i was then monitored prior to following exposure to 50 μM glutamate. Values represent the means of 8-14 neurons. Similar results were obtained in 3 separate experiments.
(C) Cultures were pretreated for 3 hr with 50 μM Aβ alone or in combination with 100 nM cytochalasin D. The [Ca^2+ ]i in neurons was then monitored prior to and following exposure to 50 mM KCl. Values represent the mean of 14-23 neurons. Similar results were obtained in a separate experiment.
(D) Cultures were pretreated for 1 h with 100 nM cytochalasin D. The [Ca^2+ ]i in neurons was measured immediately prior to, and at 5 min following, exposure to the indicated concentrations of glutamate. Values represent the means and SEM of determinations made in 17-26 neurons. *P<0.05 (10 μM glutamate), P<0.02 (50 μM glutamate), P<0.01 (100 μAM glutamate) compared to corresponding control values.
FIG. 9. Cultures were pretreated for 3 h with vehicle (control) or 10 μM jasplakinolide. The [Ca^2+ ]i was monitored prior to and following exposure to 50 μM glutamate. Values represent the mean of determinations made in 10-12 neurons. Similar results were obtained in two additional experiments.
FIG. 10. […]

Assay [2] concerns hippocampal region CA3 neurons. Kind of assay: kainate lesion paradigm, CA3 neurons. In kind it is in vivo, rat (Sprague-Dawley). The conditions noted are these: for neurons damaged by kainate: intraventricular. As for the experimental part:
A kainate lesion paradigm was employed in adult rats to determine whether cytochalasin D was also excitoprotective. Twenty-four adult male Sprague-Dawley rats (250-300 g) were divided into the indicated experimental groups (4-5 rats/group). Kainate (0.5 µg/[…]) was injected stereotaxically into region CA1 of the right hippocampus of anesthetized rats. Cytochalasin D (the indicated concentration in 1 μl of saline-1% DMSO) or vehicle was infused into the right lateral ventricle during a 5-10 min period immediately following kainate injection. Rats were killed 48 hr later and perfused transcardially with 4% paraformaldehyde. Brain sections (30 μm) were stained with cresyl violet and stained neurons in three adjacent 40X microscope fields of hippocampal region CA3 were counted (5 sections/rat) . The neuronal counts were performed in sections removed approximately 200-400 μm from the injection site. This method results in highly reproducible, 75-99%, neuronal loss in the CA3 region in over 99% of the rats injected with kainate (calculations based on 302 rats receiving intra-hippocampal kainate). […] Approximately 80% of the neurons were killed by kainate in control animals receiving an intracerebroventricular infusion of saline immediately following kainate administration.
Cresyl violet-stained coronal sections from brains of rats administered kainate alone (left) of kainate plus cytochalasin D (CyD; right). […] Lower micrographs are high magnification of a region of CA3 from the sections shown in the upper panels.
FIG. 3. Counts of viable neurons were made in region CA3 of Sham-operated rats, and rats infused intraventricularly with vehicle or increasing concentration of cytochalasin D […] unilateral kainate injection into region CA1 of the hippocampus. Neuronal survival in the kainate injected hippocampus is expressed as a percentage of neurons in the contralateral hippocampus. Values represent the mean and SEM (4 or 5 rats/group). *p<0.01 compared to value for sham rats. **p<0.01 compared to value for vehicle-infused rats. (ANOVA with Scheffe's post-hoc test).

Structures are written as SMILES. Entries after “also recorded” stand apart in the source; their conditions may differ.

With `COc1cc2c(c(OC)c1OC)-c1ccc(OC)c(=O)cc1[C@@H](NC(C)=O)CC2` [Colchicine, colchicine, reference compound], the “effect on [Ca^2+]i response to glutamate” value in assay [1] (100 nM) is recorded as “did not attenuate”. For the same compound, the “rest [Ca^2+]i, alone” value in assay [1] (alone, data not shown) was “elevation of rest [Ca^2+ ]i”. For the same compound, the “effect on [Ca^2+]i response to Aβ” value in assay [1] (data not shown) is given as “did not attenuate”.

Regarding `C=C1[C@@H](C)[C@H]2[C@H](Cc3ccccc3)NC(=O)[C@]23[C@H](OC(C)=O)/C=C/[C@@](C)(O)C(=O)[C@@H](C)C/C=C/[C@H]3[C@@H]1O` [Cytochalasin D, cytochalasin D], the “neurons damaged by kainate” value in assay [2] (0.1 μg) and in assay [2] (1.00 μg) was 20% throughout. For the same compound, the “reduction in neuronal injury to CA3 neurons after kainate” value in assay [2] (intraventricular infusion, dose related, 48 hr) is listed as “highly significant reduction in neuronal injury to CA3 neurons; also recorded: marked reduction in the damage”. For the same compound, the “effect on [Ca^2+]i response to calcium ionophore A23187” value in assay [1] (100 nM pretreatment, 500 nM A23187) is reported as “did not attenuate; also recorded: does not affect”. Moreover, in assay [1] (100 nM pretreatment, 50 mM KCl), the “effect on K^+-induced elevation of [Ca^2+]i” value is reported as “suppressed”. Further, the “reduction in peak [Ca^2+]i response to glutamate” value in assay [1] (100 nM, 10 μM glutamate, P<0.05) is on record as “approximately 60 nM”; in assay [1] (100 nM, 50 μM glutamate, P<0.02) it was “approximately 170 nM”; in assay [1] (100 nM, 100 μM glutamate, P<0.01), about 460 nM. In assay [1] (100 nM, 1 h pretreatment, 50 μM Aβ for 3 and 6 h), the “rest [Ca^2+]i after Aβ exposure” value is “not significantly elevated”. Further, the “reduction of [Ca^2+]i response to glutamate” value in assay [1] (100 nM, 1 hr pretreatment, 50 μM glutamate) is given as “approximately 30%”. Further, the “effect on Aβ-induced potentiation of [Ca^2+]i response to glutamate” value in assay [1] (Aβ pretreatment, 50 μM glutamate) was “completely blocked; also recorded: suppressed; also recorded: abrogated”. Further, the “[Ca^2+]i responses to glutamate, Aβ, and membrane depolarization” value in assay [1] (pretreated) is “attenuated”.

These data come from patent US5830910A (priority 1995, dated 1998).
